The values below come from PMC12388506, “Preclinical Evaluation of 2-Aminobenzothiazole Derivatives: In Silico, In Vitro, and Preliminary In Vivo Studies as Diabetic Treatments and Their Complications” (Molecules, 2025).

Structures are written as SMILES.

Data set [1] has as its target T1, ALR2 enzyme (Homo sapiens, UniProt P15121).
T1 construct: purchased ab273276
Kind of data set: ALR2 activity assay kit (ab273276), inhibition.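 As to relative ALR2 inhibition: inhibition calculated from the rate of NADPH cofactor consumption.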 Type of data set: biochemical. The procedure: The obtained dose–response curve had concentrations of 10 μM, 5 μM, 500 nM, 50 nM, and 5 nM.

A further data set can be described thus: FRAP assay. As for the experimental part: (§1) All synthesized compounds were evaluated at 30 μM, 50 μM, 70 μM, 90 μM, and 110 μM under two of the most widely used methods in research to directly measure the antioxidant and anti-radical intrinsic capacity, FRAP, and ABTS assay, which were validated by a dose–response curve of 5-ASA as a reference. In the same way, these tests were carried out in triplicate using an assay kit (from Pharmaceutical and Biotechnological Innovation-Services) according to the manufacturer’s instructions.

A short description of a further data set: ABTS assay. As for the experimental part: as §1
The next data set deals with male Wistar rat. Kind of data set: Acute oral toxicity, Up and Down procedure (OECD 425). Type of data set: in vivo. Also on record: Heart weight / IWA (initial weight of animals) / FWA (final weight of animals) / Spleen weight / Liver weight / Intestine weight / Stomach weight / Kidney weight: unit not given here. The settings on record: for FWA (final weight of animals): after 14 days; for Heart weight / Intestine weight / Kidney weight / Liver weight / Spleen weight / Stomach weight: necropsy; for toxicity category (OECD): maximum dose 1250 mg/Kg oral. The procedure: All synthesized compounds (8c, 8d, and 12d as a racemic mixture) were suspended in 2% Tween 80 in water and administered orally by an esophageal cannula following the “Up and Down” methodology. Nevertheless, compounds could not be solubilized in the desired volume to complete the highest dose (1750 mg/Kg), so the toxicity test was performed with a maximum dose of 1250 mg/Kg. Even so, the values obtained indicate that these compounds are classified within toxicity category 4 according to the guidelines established by the Organization for Economic Co-operation and Development (OECD).
The “Up and Down” procedure of OECD Guideline 425 was used to estimate the LD50 value of synthesized compounds. Briefly, a dose of 175 mg/Kg was administered to a male Wistar rat, which was monitored continuously for 48 h. As the animal survived, a second animal received a dose of 550 mg/Kg, and, as it survived, a third animal received an increasing dose of 1750 mg/Kg. Finally, two other rats were administered the same dose. All animals were kept under observation for 14 days, and 24 h later, they were taken to the humane endpoint for macroscopic examination of organs and tissues. Finally, the LD50 value of the compounds was estimated to determine their degree of toxicity and classified based on the GHS of Classification and Labeling of Chemicals.

Data set [2] concerns the target T1, ALR2 enzyme. Kind of data set: ALR2 activity assay kit (ab273276), inhibition.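 As to relative ALR2 inhibition: inhibition calculated from the rate of NADPH cofactor consumption.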 Type of data set: biochemical. The settings on record: Inhibitor concentration.
The mark [3] stands for this setting: Inhibitor concentration 5000 nm.
[4] abbreviates: Inhibitor concentration 10000 nm.

As for `CNC(=O)C(Cc1ccccc1)N/C(=N\c1nc2ccccc2s1)SC` (racemic) [12d, Methyl (RS, E)-N’-(benzo[d]thiazol-2-yl)-N-(1-(methylamino)-1-oxo-3-phenylpropan-2-yl)carbamimidothioate], the “relative ALR2 inhibition” value on ALR2 enzyme [1] (Inhibitor concentration 5 nm) came to 29.534%; at ALR2 enzyme [1] (Inhibitor concentration 50 nm), 32.532%; at ALR2 enzyme [1] (Inhibitor concentration 500 nm), 33.993%; on ALR2 enzyme [1] (setting [3]), 48.448%; on ALR2 enzyme [1] (setting [4]), 86.455%; at ALR2 enzyme [2], 32.814%. Besides, the “Percentage reduction of ferric ion to ferrous ion (FRAP)” value in the data set “FRAP assay” (30 µM) was 0.19%; in “FRAP assay” (50 µM) it was 0.20%; in “FRAP assay” (70 µM) it was 0.18%; in “FRAP assay” (90 µM), 0.20%. For the same molecule, the “Percentage reduction of radical cation ABTS” value in “ABTS assay” (30 µM) is -3.4%; in the data set “ABTS assay” (50 µM), -3.7%; in “ABTS assay” (70 µM) it was -2.3%; in the data set “ABTS assay” (90 µM), -3.1%; in the data set “ABTS assay” (110 µM) it was -1.9%. The “FWA (final weight of animals)” value with male Wistar rat (1250 mg/Kg oral, mean ± SEM) is reported as 309.67 ± 4.67. Also, the “IWA (initial weight of animals)” value in the data set with male Wistar rat (1250 mg/Kg oral, mean ± SEM) amounted to 208.47 ± 6.47. This molecule came in with a Heart weight in the data set with male Wistar rat (1250 mg/Kg oral, mean ± SEM) of 1.23 ±0.13. Besides, the Intestine weight with male Wistar rat (1250 mg/Kg oral, mean ± SEM) is on record as 29.10 ± 0.50. In addition, the Kidney weight in the data set on male Wistar rat (1250 mg/Kg oral, mean ± SEM) stood at 2.87 ± 0.067. Also, in the data set with male Wistar rat (1250 mg/Kg oral, mean ± SEM), the Liver weight is listed as 19.33 ± 0.03. In the data set with male Wistar rat (1250 mg/Kg oral, mean ± SEM), this molecule registered a Spleen weight of 0.83 ± 0.03. This molecule also registered a Stomach weight with male Wistar rat (1250 mg/Kg oral, mean ± SEM) of 1.53 ± 0.07. The “toxicity category (OECD)” value in the data set with male Wistar rat is reported as 4.
Consider `COC(=O)[C@@H](N/C(=N\c1nc2ccccc2s1)SC)c1ccccc1` [8c, Methyl (S,E)-2-(((benzo[d]thiazol-2-ylimino)(methylthio)methyl)amino)-2-phenylacetate], for which the “concentrations at which ALR2 was inhibited” value on ALR2 enzyme [1] was “below 10 µM”. The “concentration dependence of ALR2 inhibition (IC50 not calculable)” value at ALR2 enzyme [1] (10 μM to 5 nM) is listed as “did not show a concentration-dependent response”. The “relative ALR2 inhibition” value came to 82.945% at ALR2 enzyme [1] (Inhibitor concentration 5 nm); 85.158% at ALR2 enzyme [1] (Inhibitor concentration 50 nm); 68.371% on ALR2 enzyme [1] (Inhibitor concentration 500 nm); 53.000% at ALR2 enzyme [1] (setting [3]); 90.000% on ALR2 enzyme [2]. For the same molecule, the “Percentage reduction of ferric ion to ferrous ion (FRAP)” value in “FRAP assay” (30 µM) is 13.2%; in the data set “FRAP assay” (50 µM), 14.4%; in “FRAP assay” (70 µM), 15.5%; in the data set “FRAP assay” (90 µM), 19.6%; in the data set “FRAP assay” (110 µM), 20.2%. The “Percentage reduction of radical cation ABTS” value is reported as -3.5% in “ABTS assay” (30 µM); -3.9% in the data set “ABTS assay” (50 µM); -3.8% in the data set “ABTS assay” (70 µM); -2.9% in the data set “ABTS assay” (90 µM); -2.8% in “ABTS assay” (110 µM). Further, the “FWA (final weight of animals)” value with male Wistar rat (1250 mg/Kg oral, mean ± SEM) was determined as 204.37 ± 1.47. The Heart weight in the data set with male Wistar rat (1250 mg/Kg oral, mean ± SEM) is 1.07 ± 0.17. In the data set on male Wistar rat (1250 mg/Kg oral, mean ± SEM), this molecule registered an Intestine weight of 30.20 ± 1.50. Moreover, in the data set on male Wistar rat (1250 mg/Kg oral, mean ± SEM), the Kidney weight is listed as 2.57 ± 0.27. This molecule came in with a Liver weight with male Wistar rat (1250 mg/Kg oral, mean ± SEM) of 18.87 ± 1.47. The Spleen weight in the data set with male Wistar rat (1250 mg/Kg oral, mean ± SEM) is 0.73 ± 0.03. This molecule also registered a Stomach weight in the data set on male Wistar rat (1250 mg/Kg oral, mean ± SEM) of 1.57 ± 0.07. Moreover, in the data set with male Wistar rat, the “toxicity category (OECD)” value was found to be 4.
For the molecule `CC(/C=C1\SC(=S)N(CC(=O)O)C1=O)=C\c1ccccc1` [Epa, epalrestat, reference compound], the “relative ALR2 inhibition” value is recorded as 5.000% at ALR2 enzyme [1] (Inhibitor concentration 5 nm); 5.288% on ALR2 enzyme [1] (Inhibitor concentration 50 nm); 12.513% on ALR2 enzyme [1] (Inhibitor concentration 500 nm); 58.372% on ALR2 enzyme [1] (setting [3]); 100.000% on ALR2 enzyme [1] (setting [4]); 3.000% on ALR2 enzyme [2].
